Counter-ions that a name gives are not always drawn.
What follows are compounds tested against T1, LFA-1 binding to immobilized ICAM-1 (Homo sapiens, UniProt P05107+P20701) (assay: LFA-1/ICAM-1 protein-protein assay (solid-phase ELISA)). Settings: LFA-1/ICAM-1 Protein-Protein Assay IC50.
T1 construct: made in house; host or cells: transfected 293 cells (LFA-1)
Summary of the method: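 Human 5dICAM-Ig (ICAM-1 extracellular domain–IgG Fc) coated on plates; membrane-bound LFA-1 from transfected 293 cells (280 ng/mL) added with compound in Mn2+-containing HEPES buffer pH 7.2, 2 h at 37° C. Bound LFA-1 detected via anti-β2 antibody and HRP/TMB at 450 nm; IC50s determined.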

T1 sequence (P20701 26-1170): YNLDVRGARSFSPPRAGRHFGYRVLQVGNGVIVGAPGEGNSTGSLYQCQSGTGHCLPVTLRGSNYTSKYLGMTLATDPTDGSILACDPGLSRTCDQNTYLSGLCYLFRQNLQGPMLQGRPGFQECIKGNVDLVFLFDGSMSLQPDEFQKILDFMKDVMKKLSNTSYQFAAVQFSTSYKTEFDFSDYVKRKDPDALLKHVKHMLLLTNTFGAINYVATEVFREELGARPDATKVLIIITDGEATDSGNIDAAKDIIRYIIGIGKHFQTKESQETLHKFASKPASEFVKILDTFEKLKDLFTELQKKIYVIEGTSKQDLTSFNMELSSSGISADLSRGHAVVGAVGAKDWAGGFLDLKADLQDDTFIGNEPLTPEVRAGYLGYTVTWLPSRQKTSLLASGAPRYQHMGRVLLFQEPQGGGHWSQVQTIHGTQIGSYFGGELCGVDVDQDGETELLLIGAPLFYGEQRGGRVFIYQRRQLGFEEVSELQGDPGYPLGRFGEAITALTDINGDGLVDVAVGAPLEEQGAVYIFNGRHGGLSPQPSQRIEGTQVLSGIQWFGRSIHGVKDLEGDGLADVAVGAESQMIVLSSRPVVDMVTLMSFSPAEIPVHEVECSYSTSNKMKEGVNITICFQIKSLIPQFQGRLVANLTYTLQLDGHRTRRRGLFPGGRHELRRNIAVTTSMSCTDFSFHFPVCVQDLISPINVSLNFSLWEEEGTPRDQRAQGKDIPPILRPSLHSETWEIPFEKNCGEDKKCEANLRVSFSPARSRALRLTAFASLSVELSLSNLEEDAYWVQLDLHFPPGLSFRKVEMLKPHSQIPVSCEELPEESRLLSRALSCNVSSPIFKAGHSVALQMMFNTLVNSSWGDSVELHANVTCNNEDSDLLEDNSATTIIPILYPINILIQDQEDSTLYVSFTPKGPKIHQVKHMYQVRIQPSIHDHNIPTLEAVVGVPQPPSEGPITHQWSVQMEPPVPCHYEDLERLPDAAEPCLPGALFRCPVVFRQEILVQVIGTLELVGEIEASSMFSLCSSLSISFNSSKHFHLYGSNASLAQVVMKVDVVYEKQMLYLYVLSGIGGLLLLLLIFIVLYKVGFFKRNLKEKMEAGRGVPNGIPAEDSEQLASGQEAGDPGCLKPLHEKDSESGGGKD
T1 sequence (P05107 23-769): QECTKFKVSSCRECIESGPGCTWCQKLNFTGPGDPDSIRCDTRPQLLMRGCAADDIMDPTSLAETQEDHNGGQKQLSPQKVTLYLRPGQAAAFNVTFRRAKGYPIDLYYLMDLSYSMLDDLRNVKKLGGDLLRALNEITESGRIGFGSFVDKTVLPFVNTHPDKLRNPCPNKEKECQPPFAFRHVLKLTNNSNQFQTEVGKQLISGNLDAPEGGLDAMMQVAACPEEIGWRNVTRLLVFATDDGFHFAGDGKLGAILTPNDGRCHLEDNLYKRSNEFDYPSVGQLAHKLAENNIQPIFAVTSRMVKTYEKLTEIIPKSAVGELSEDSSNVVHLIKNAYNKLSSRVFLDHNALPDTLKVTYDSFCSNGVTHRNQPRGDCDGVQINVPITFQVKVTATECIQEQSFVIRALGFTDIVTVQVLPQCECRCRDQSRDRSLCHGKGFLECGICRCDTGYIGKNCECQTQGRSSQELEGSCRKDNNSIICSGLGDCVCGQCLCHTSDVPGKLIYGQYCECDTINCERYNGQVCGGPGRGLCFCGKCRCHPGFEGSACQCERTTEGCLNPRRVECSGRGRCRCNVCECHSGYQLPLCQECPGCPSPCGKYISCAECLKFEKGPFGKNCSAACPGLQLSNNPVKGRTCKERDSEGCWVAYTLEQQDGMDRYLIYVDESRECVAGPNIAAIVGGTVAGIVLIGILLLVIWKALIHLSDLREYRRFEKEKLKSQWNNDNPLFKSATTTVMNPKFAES

| SMILES | IC50 |
| --- | --- |
| O=C(Cc1ccc([N+](=O)[O-])cc1[N+](=O)[O-])NC[C@H](NC(=O)c1ccc(C(=O)NCc2cccc(O)c2)cc1Cl)C(=O)O [Example 83] | 2.3 nM |
| O=C(NCc1cccc(O)c1)c1ccc(C(=O)N[C@@H](CNC(=O)c2cc([N+](=O)[O-])cc([N+](=O)[O-])c2)C(=O)O)c(Cl)c1 [Example 129] | 4.2 nM |

Same assay, conditions: read-out: LFA-1/ICAM-1 Protein-Protein Assay IC50

| IC50 | SMILES |
| --- | --- |
| 1 nM | O=C(CC1CCCCC1)NC[C@H](NC(=O)c1ccc(C(=O)NCc2cccc(O)c2)cc1Cl)C(=O)O [Example 78] |
| 2.9 nM | O=C(Cc1ccccc1)NC[C@H](NC(=O)c1ccc(C(=O)NCc2cccc(O)c2)cc1Cl)C(=O)O [Example 79] |
| 6 nM | COc1ccc(CC(=O)NC[C@H](NC(=O)c2ccc(C(=O)NCc3cccc(O)c3)cc2Cl)C(=O)O)cc1 [Example 80] |
| 4 nM | O=C(Cc1ccc([N+](=O)[O-])cc1)NC[C@H](NC(=O)c1ccc(C(=O)NCc2cccc(O)c2)cc1Cl)C(=O)O [Example 81] |
| 4.3 nM | O=C(Cc1cccc(C(F)(F)F)c1)NC[C@H](NC(=O)c1ccc(C(=O)NCc2cccc(O)c2)cc1Cl)C(=O)O [Example 82] |
| 1 nM | O=C(Cc1cccs1)NC[C@H](NC(=O)c1ccc(C(=O)NCc2cccc(O)c2)cc1Cl)C(=O)O [Example 84] |
| 3.3 nM | O=C(NCc1cccc(O)c1)c1ccc(C(=O)N[C@@H](CNC(=O)C(c2ccccc2)c2ccccc2)C(=O)O)c(Cl)c1 [Example 86] |
| 4.8 nM | O=C(Cc1ccc2ccccc2c1)NC[C@H](NC(=O)c1ccc(C(=O)NCc2cccc(O)c2)cc1Cl)C(=O)O [Example 87] |
| 1.8 nM | O=C(CC1c2ccccc2-c2ccccc21)NC[C@H](NC(=O)c1ccc(C(=O)NCc2cccc(O)c2)cc1Cl)C(=O)O [Example 88] |
| 5.9 nM | O=C(C[n+]1csc2ccccc21)NC[C@H](NC(=O)c1ccc(C(=O)NCc2cccc(O)c2)cc1Cl)C(=O)O [Example 89] |
| 2.4 nM | O=C(CSc1ccncc1)NC[C@H](NC(=O)c1ccc(C(=O)NCc2cccc(O)c2)cc1Cl)C(=O)O [Example 90] |
| 5 nM | O=C(CSc1ncccn1)NC[C@H](NC(=O)c1ccc(C(=O)NCc2cccc(O)c2)cc1Cl)C(=O)O [Example 91] |
| 2.1 nM | CC(C)(C)C(=O)NC[C@H](NC(=O)c1ccc(C(=O)NCc2cccc(O)c2)cc1Cl)C(=O)O [Example 92] |
| 0.5 nM | O=C(NCc1cccc(O)c1)c1ccc(C(=O)N[C@@H](CNC(=O)C23CC4CC(CC(C4)C2)C3)C(=O)O)c(Cl)c1 [Example 93] |
| 1.5 nM | O=C(CCc1ccccc1)NC[C@H](NC(=O)c1ccc(C(=O)NCc2cccc(O)c2)cc1Cl)C(=O)O [Example 94] |
| 1.9 nM | O=C(NCc1cccc(O)c1)c1ccc(C(=O)N[C@@H](CNC(=O)c2cnccn2)C(=O)O)c(Cl)c1 [Example 170] |
| 2.6 nM | O=C(NCc1cccc(O)c1)c1ccc(C(=O)N[C@@H](CNC(=O)c2cc3ccccc3s2)C(=O)O)c(Cl)c1 [Example 175] |
| 1 nM | O=C(NCc1cccc(O)c1)c1ccc(C(=O)N[C@@H](CNC(=O)c2ccc3ncsc3c2)C(=O)O)c(Cl)c1 [Example 177] |
| 2.3 nM | O=C(NCc1cccc(O)c1)c1ccc(C(=O)N[C@@H](CNC(=O)c2cccc3ccccc23)C(=O)O)c(Cl)c1 [Example 178] |
| 3.6 nM | O=C(NCc1cccc(O)c1)c1ccc(C(=O)N[C@@H](CNC(=O)c2ccc3ccccc3c2)C(=O)O)c(Cl)c1 [Example 179] |
| 12 nM | O=C(NCc1cccc(O)c1)c1ccc(C(=O)N[C@@H](CNC(=O)c2cnc3ccccc3c2)C(=O)O)c(Cl)c1 [Example 183] |
| 12 nM | O=C(NCc1cccc(O)c1)c1ccc(C(=O)N[C@@H](CNC(=O)c2cc(=O)c3ccccc3o2)C(=O)O)c(Cl)c1 [Example 187] |
| 13 nM | O=C(NCc1cccc(O)c1)c1ccc(C(=O)N[C@@H](CNC(=O)c2c3c(nc4ccccc24)CCCC3)C(=O)O)c(Cl)c1 [Example 190] |
| 1.3 nM | O=C(NCc1cccc(O)c1)c1ccc(C(=O)N[C@@H](CNC(=O)c2ccc3c(c2)S(=O)(=O)c2ccccc2C3=O)C(=O)O)c(Cl)c1 [Example 192] |
| 0.7 nM | CC(=O)NC[C@H](NC(=O)c1ccc(C(=O)NCc2cccc(O)c2)cc1Cl)C(=O)O [Example 193] |
| 1.9 nM | CC(C)C(=O)NC[C@H](NC(=O)c1ccc(C(=O)NCc2cccc(O)c2)cc1Cl)C(=O)O [Example 194] |
| 2 nM | CC(C)CC(=O)NC[C@H](NC(=O)c1ccc(C(=O)NCc2cccc(O)c2)cc1Cl)C(=O)O [Example 195] |
| 2.8 nM | O=C(NCc1cccc(O)c1)c1ccc(C(=O)N[C@@H](CNC(=O)[C@@H]2CCCN2)C(=O)O)c(Cl)c1 [Example 196] |

| IC50 | SMILES |
| --- | --- |
| 4.9 nM | CSCC[C@H](N)C(=O)NC[C@H](NC(=O)c1ccc(C(=O)NCc2cccc(O)c2)cc1Cl)C(=O)O [Example 197] |
| 12 nM | NCCCC[C@H](N)C(=O)NC[C@H](NC(=O)c1ccc(C(=O)NCc2cccc(O)c2)cc1Cl)C(=O)O [Example 198] |
| 7.4 nM | N[C@@H](Cc1ccccc1)C(=O)NC[C@H](NC(=O)c1ccc(C(=O)NCc2cccc(O)c2)cc1Cl)C(=O)O [Example 199] |
| 2.9 nM | NC(=O)C[C@H](N)C(=O)NC[C@H](NC(=O)c1ccc(C(=O)NCc2cccc(O)c2)cc1Cl)C(=O)O [Example 200] |
| 7.6 nM | N[C@@H](Cc1c[nH]c2ccccc12)C(=O)NC[C@H](NC(=O)c1ccc(C(=O)NCc2cccc(O)c2)cc1Cl)C(=O)O [Example 201] |
| 1.8 nM | N[C@@H](CCC(=O)NC[C@H](NC(=O)c1ccc(C(=O)NCc2cccc(O)c2)cc1Cl)C(=O)O)C(=O)O [Example 202] |
| 13 nM | O=C(NC[C@H](NC(=O)c1c(Cl)cccc1Cl)C(=O)O)c1ccccc1 [Example 219] |
| 6.4 nM | O=C(NC[C@H](NC(=O)c1c(Cl)cccc1Cl)C(=O)O)c1ccc(Br)s1 [Example 223] |
| 24 nM | O=C(NC[C@H](NC(=O)c1c(F)cccc1Cl)C(=O)O)c1ccc(Br)s1 [Example 224] |
| 47 nM | O=C(NC[C@H](NC(=O)c1c(F)cccc1Cl)C(=O)O)c1ccc2[nH]nnc2c1 [Example 226] |
| 0.9 nM | O=C(NCc1cccc(O)c1)c1ccc(C(=O)N[C@@H](CNC(=O)c2cc(F)cc(F)c2)C(=O)O)c(Cl)c1 [Example 252, N-[2-chloro-4-[[[(3-hydroxyphenyl)methyl]amino]carbonyl]benzoyl]-3-(3,5-difluorobenzoyl)amino-L-alanine] |
| 0.7 nM | O=C(NCc1cccc(O)c1)c1ccc(C(=O)N[C@@H](CNC(=O)c2csnn2)C(=O)O)c(Cl)c1 [Example 254] |
| 2.9 nM | Cc1nnsc1C(=O)NC[C@H](NC(=O)c1ccc(C(=O)NCc2cccc(O)c2)cc1Cl)C(=O)O [Example 255] |
| 0.8 nM | O=C(NCc1cccc(O)c1)c1ccc(C(=O)N[C@@H](CNC(=O)c2ccno2)C(=O)O)c(Cl)c1 [Example 256] |
| 1.2 nM | COc1cscc1C(=O)NC[C@H](NC(=O)c1ccc(C(=O)NCc2cccc(O)c2)cc1Cl)C(=O)O [Example 257] |
| 2.2 nM | COc1c(C(=O)NC[C@H](NC(=O)c2ccc(C(=O)NCc3cccc(O)c3)cc2Cl)C(=O)O)csc1Cl [Example 258, N-[2-chloro-4-[[[(3-hydroxyphenyl)methyl]amino]carbonyl]benzoyl]-3-(5-chloro-4-methoxythiophene-3-carbonyl)amino-L-alanine] |
| 1.2 nM | O=C(NCc1cccc(O)c1)c1ccc(C(=O)N[C@@H](CNC(=O)c2ccoc2)C(=O)O)c(Cl)c1 [Example 259, N-[2-chloro-4-[[[(3-hydroxyphenyl)methyl]amino]carbonyl]benzoyl]-3-(furan-3-carbonyl)amino-L-alanine] |
| 2.2 nM | NCCCC(=O)NC[C@H](NC(=O)c1ccc(C(=O)NCc2cccc(O)c2)cc1Cl)C(=O)O [Example 261, N-[2-chloro-4-[[[(3-hydroxyphenyl)methyl]amino]-carbonyl]benzoyl]-3-(4-aminobutanoylamino)-L-alanine] |
| 4.8 nM | O=C(NCc1cccc(O)c1)c1ccc(C(=O)N[C@@H](CNC(=O)C2CCNCC2)C(=O)O)c(Cl)c1 [Example 262] |
| 4.2 nM | NC1(C(=O)NC[C@H](NC(=O)c2ccc(C(=O)NCc3cccc(O)c3)cc2Cl)C(=O)O)CCCC1 [Example 263] |
| 4.6 nM | N[C@H]1CC[C@@H](C(=O)NC[C@H](NC(=O)c2ccc(C(=O)NCc3cccc(O)c3)cc2Cl)C(=O)O)CC1 [Example 264] |
| 4.6 nM | Nc1cccn(CC(=O)NC[C@H](NC(=O)c2ccc(C(=O)NCc3cccc(O)c3)cc2Cl)C(=O)O)c1=O [Example 266] |
| 0.8 nM | O=C(O)c1cccc(C(=O)NC[C@H](NC(=O)c2ccc(C(=O)NCc3cccc(O)c3)cc2Cl)C(=O)O)c1 [Example 297] |
| 4.8 nM | O=C(O)CCCC(=O)NC[C@H](NC(=O)c1ccc(C(=O)NCc2cccc(O)c2)cc1Cl)C(=O)O [Example 298] |
| 0.9 nM | O=C(NCc1cccc(O)c1)c1ccc(C(=O)N[C@@H](CNC(=O)c2ccccc2)C(=O)O)c(Cl)c1 [Example 302, 3-benzoylamino-N-[2-chloro-4-[[[(3-hydroxyphenyl)methyl]amino]carbonyl]benzoyl]-L-alanine] |
| 0.5 nM | O=C(NCc1cccc(O)c1)c1ccc(C(=O)N[C@@H](CNC(=O)c2cccs2)C(=O)O)c(Cl)c1 [Example 303, N-[2-chloro-4-[[[(3-hydroxyphenyl)methyl]amino]carbonyl]benzoyl]-3-(thiophene-2-carbonyl)amino-L-alanine] |
| 1 nM | O=C(NCc1cccc(O)c1)c1ccc(C(=O)N[C@@H](CNC(=O)c2cccs2)C(=O)O)c(Cl)c1 [Example 305, N-[2-chloro-4-[[[(3-hydroxyphenyl)methyl]amino]carbonyl]benzoyl]-3-(thiophene-2-carbonyl)amino-L-alanine, sodium salt] |

— patent US20040006236A1, “Diaminopropionic acid derivatives” (priority 1999, published 2004)
